# Reference: patent publication US20240060146A1, “CHEMICAL SUBSTANCE EVALUATION SYSTEM USING MULTICOLOR LIGHT-EMITTING CELLS” (TOHOKU UNIVERSITY, priority 2020, published 2024)
# Where a name gives a salt, the structure may show the parent alone.
# Key:
# Assay type in all cases: cell-based
# 2H4 cells [1] = experiment: IL-2 Luc assay: evaluation of chemical substance in 2H4 cells; conditions: 1 h chemical, then PMA/ionomycin, luminescence after six hours, class from Min % suppression of nIL2LA
# Experimental: (§1) 2H4 cells were established from Jurkat cells according to the method described in PTL 1. First, for the preparation of 2H4 cells, a plasmid having SLG introduced downstream of the IL-2 promoter, a plasmid having SLR introduced downstream of the G3PDH promoter, and a plasmid having SLO introduced downstream of the INF-γ promoter were prepared as internal standards. These plasmids contained a resistance gene for hygromycin B, puromycin, and neomycin downstream of SLG, SLR, and SLO, respectively. The conditions for drug selection after transfection of the host Jurkat cells were as follows: in the primary selection, the cells were cultured for 1 week in the presence of a drug. In the secondary selection culture, the cells that survived in the primary selection culture were seeded in a 96-well plate at 1 cell/well or 200 cells/well, and cultured for 2 weeks under the same drug conditions. After the secondary selection culture, the cells were subjected to clone selection from the two points of signal intensity and signal induction by drug treatment. The G3PDH promoter SLR was first introduced to establish monochromatic stable cell line Jurkat: G3PDH-SLR #14D1 cells. These cells were used as the parent cell line to introduce the INF-γ promoter SLO, thereby establishing bichromatic stable cell line Jurkat: INFγ-SLO/G3PDH-SLR #2B12 cells. Subsequently, the obtained cells were used as a parent cell line to introduce the IL-2 promoter SLG, thereby establishing trichromatic stable cell line Jurkat IL-2-SLG/INFγ-SLO/G3PDH-SLR #2H4 cells.
# (§2) % suppression={(nIL2LA in 2H4 cells untreated with a chemical substance)−(nIL2LA in 2H4 cells treated with a chemical substance)}×100/(nIL2LA in 2H4 cells untreated with a chemical substance) ---(1) Inh-GAPLA=(GAPLA in 2H4 cells treated with a chemical substance)/(GAPLA in 2H4 cells untreated with a chemical substance) ---(2)
# The chemical substances listed in Table 1 were evaluated using 2H4 cells. 2H4 cells were seeded in a 96-well plate at 2×10^5 cells/50 μl/well and treated with each chemical substance for 1 hour, followed by incubating the cells with 25 nM PMA and 1 µM ionomycin […]. After six hours from the treatment with PMA and ionomycin, Tripluc: Assay Reagent (manufactured by Toyobo Co., Ltd.) was added, and the amount of luminescence was measured with a Phelios microplate luminometer (manufactured by Atto Corporation). For control, 2H4 cells untreated with a chemical substance were also examined in the same manner. The amount of luminescence of SLG luciferase activity (IL2LA), SLR luciferase activity (GAPLA), and SLO luciferase activity (IFNLA) was measured, and IL-2LA and IFNLA were each normalized by GAPLA and determined to be nIL2LA and nIFNLA, respectively. Thereafter, for the concentration of each chemical substance, the value of suppression was calculated according to formula (1) above, and the chemical substances were evaluated by using their minimum value (Min suppression).
# 2H4 cells [2] = experiment: IL-2 Luc LTT: evaluation of chemical substance in 2H4 cells; conditions: 1 h chemical, then 25 nM PMA and 1 μM ionomycin 24 h, class from Min % suppression (nIL2LA) and Min Inh-GAPLA
# Experimental: as §1
# The chemical substances listed in Table 1 were evaluated using 2H4 cells. 2H4 cells were seeded in a 96-well plate at 1×10^4/well and treated with each chemical substance for 1 hour, followed by incubating the cells with 25 nM PMA and 1 μM ionomycin for 24 hours. After 24 hours from the treatment with PMA and ionomycin, Tripluck Assay Reagent (manufactured by Toyobo Co., Ltd.) was added, and the amount of luminescence was measured with a Phelios microplate luminometer (manufactured by Atto Corporation). For control, 2H4 cells untreated with a chemical substance were also examined in the same manner. The amount of luminescence of SLG luciferase activity (IL2LA), SLR luciferase activity (GAPLA), and SLO luciferase activity (IFNLA) was measured, and IL-2LA and IFNLA were each normalized by GAPLA and determined to be nIL2LA and nIFNLA, respectively. Thereafter, for the concentration of each chemical substance, “% suppression” and “Inh-GAPLA” were determined according to the following formulas (1) and (2), and the chemical substances were evaluated by using their minimum value (Min % suppression, Min Inh-GAPLA).
# In the evaluation, for control, PMA/ionomycin-treated 2H4 cells and PMA/ionomycin-untreated 2H4 cells were also measured for nIL2LA.
# as §2
# 2H4 cells [3] = experiment: Evaluation of combination of IL-2 Luc LTT and IL-2 Luc assay; set-up: key: Positive (Pos): If the result is either LCT in the IL-2 Luc LTT or S in the IL-2 Luc assay, or both, the chemical substance is determined to be an immunosuppressive substance.; Negative (Neg): In the case other than the above, the chemical substance is determined to be a non-immunosuppressive substance; conditions: LCT in IL-2 Luc LTT or S in IL-2 Luc assay = Pos
# Experimental: Positive (Pos): If the result is either LCT in the IL-2 Luc LTT or S in the IL-2 Luc assay, or both, the chemical substance is determined to be an immunosuppressive substance. Negative (Neg): In the case other than the above, the chemical substance is determined to be a non-immunosuppressive substance.
Evaluation of Combination (2H4 cells [3]),SMILES,IL-2 Luc Assay (2H4 cells [1]),IL-2 Luc LTT (2H4 cells [2])
Pos,Cc1oncc1C(=O)Nc1ccc(C(F)(F)F)cc1 [Leflunomide],S (Min %; suppression ≥35: Suppression (denoted as “S”; determined to have immunosuppressive action)),NLCT
Pos,Nc1nc2nc[nH]c2c(=S)[nH]1 [6-Thioguanine],N (−35<Min % suppression <35: No Effect (denoted as “N”; determined to not affect immunity)),LCT (Min % suppression ≤−35 and Min Inh-GAPLA <0.7: Leukocyte toxic (denoted as “LCT”; determined to have cell growth inhibition action and/or metabolic activity inhibition action))
Pos,COc1ccc2c(c1)c(CC(=O)O)c(C)n2C(=O)c1ccc(Cl)cc1 [Indomethacin],S (Min %; suppression ≥35: Suppression (denoted as “S”; determined to have immunosuppressive action)),–
Pos,O=c1[nH]cc(F)c(=O)[nH]1 [5-Fluorouracil],N (−35<Min % suppression <35: No Effect (denoted as “N”; determined to not affect immunity)),LCT (Min % suppression ≤−35 and Min Inh-GAPLA <0.7: Leukocyte toxic (denoted as “LCT”; determined to have cell growth inhibition action and/or metabolic activity inhibition action))
Pos,Nc1ccn([C@@H]2O[C@H](CO)[C@@H](O)[C@@H]2O)c(=O)n1 [Cytarabine],N (−35<Min % suppression <35: No Effect (denoted as “N”; determined to not affect immunity)),LCT (Min % suppression ≤−35 and Min Inh-GAPLA <0.7: Leukocyte toxic (denoted as “LCT”; determined to have cell growth inhibition action and/or metabolic activity inhibition action))
Neg,OC[C@@H](O)[C@@H](O)[C@H](O)[C@H](O)CO [Mannitol],N (−35<Min % suppression <35: No Effect (denoted as “N”; determined to not affect immunity)),I (−35<Min % suppression <35 and 0.7≤Min Inh-GAPLA: Inconclusive (denoted as “I”; possibly not measurable due to low water solubility))
Pos,CC(=O)O[C@H]1C(=O)[C@@]2(C)[C@H]([C@H](OC(=O)c3ccccc3)[C@]3(O)C[C@H](OC(=O)[C@H](O)[C@@H](NC(=O)c4ccccc4)c4ccccc4)C(C)=C1C3(C)C)[C@]1(OC(C)=O)CO[C@@H]1C[C@@H]2O [Paclitaxel],S (Min %; suppression ≥35: Suppression (denoted as “S”; determined to have immunosuppressive action)),LCT (Min % suppression ≤−35 and Min Inh-GAPLA <0.7: Leukocyte toxic (denoted as “LCT”; determined to have cell growth inhibition action and/or metabolic activity inhibition action))
Pos,COc1cc([C@@H]2c3cc4c(cc3[C@@H](O[C@@H]3O[C@@H]5CO[C@@H](c6cccs6)O[C@H]5[C@H](O)[C@H]3O)[C@H]3COC(=O)[C@H]23)OCO4)cc(OC)c1O [Teniposide],N (−35<Min % suppression <35: No Effect (denoted as “N”; determined to not affect immunity)),LCT (Min % suppression ≤−35 and Min Inh-GAPLA <0.7: Leukocyte toxic (denoted as “LCT”; determined to have cell growth inhibition action and/or metabolic activity inhibition action))
Pos,"CN(C)c1ccc(O)c2c1C[C@H]1C[C@H]3[C@H](N(C)C)C(O)=C(C(N)=O)C(=O)[C@@]3(O)C(O)=C1C2=O [Minocycline (MC), Minocycline]",S (Min %; suppression ≥35: Suppression (denoted as “S”; determined to have immunosuppressive action)),NLCT
Neg,CS(=O)(=O)OCCCCOS(C)(=O)=O [Busulfan],N (−35<Min % suppression <35: No Effect (denoted as “N”; determined to not affect immunity)),I (−35<Min % suppression <35 and 0.7≤Min Inh-GAPLA: Inconclusive (denoted as “I”; possibly not measurable due to low water solubility))
Pos,CS(=O)(=O)Nc1cc2occ(NC=O)c(=O)c2cc1Oc1ccccc1 [Igratimod],S (Min %; suppression ≥35: Suppression (denoted as “S”; determined to have immunosuppressive action)),NLCT
Pos,"NC(=O)c1cccnc1 [Nicotinamide (NA), Nicotinamide]",A (Min suppression ≤−35: Augmentation (denoted as “A”; determined to have immunoaugmenting action)),LCT (Min % suppression ≤−35 and Min Inh-GAPLA <0.7: Leukocyte toxic (denoted as “LCT”; determined to have cell growth inhibition action and/or metabolic activity inhibition action))
Pos,COc1cccc2c1C(=O)c1c(O)c3c(c(O)c1C2=O)C[C@@](O)(C(=O)CO)C[C@@H]3O[C@H]1C[C@H](N)[C@H](O)[C@H](C)O1 [Doxorubicin hydrochloride],S (Min %; suppression ≥35: Suppression (denoted as “S”; determined to have immunosuppressive action)),LCT (Min % suppression ≤−35 and Min Inh-GAPLA <0.7: Leukocyte toxic (denoted as “LCT”; determined to have cell growth inhibition action and/or metabolic activity inhibition action))
Pos,"CC(=O)Nc1ccc(O)cc1 [Acetaminophen (AA), Acetaminophen]",A (Min suppression ≤−35: Augmentation (denoted as “A”; determined to have immunoaugmenting action)),–
Pos,"O=C(O)c1cc(/N=N/c2ccc(S(=O)(=O)Nc3ccccn3)cc2)ccc1O [Sulfasalazine (SASP), Sulfasalazine]",S (Min %; suppression ≥35: Suppression (denoted as “S”; determined to have immunosuppressive action)),–
Pos,COc1cc([C@@H]2c3cc4c(cc3[C@@H](O[C@@H]3O[C@@H]5CO[C@@H](C)O[C@H]5[C@H](O)[C@H]3O)[C@H]3COC(=O)[C@H]23)OCO4)cc(OC)c1O [Etoposide],N (−35<Min % suppression <35: No Effect (denoted as “N”; determined to not affect immunity)),–

SMILES,Evaluation of Combination (2H4 cells [3]),IL-2 Luc Assay (2H4 cells [1]),IL-2 Luc LTT (2H4 cells [2])
Nc1nc(F)nc2c1ncn2[C@@H]1O[C@H](CO)[C@@H](O)[C@@H]1O [Fludarabine],Pos,A (Min suppression ≤−35: Augmentation (denoted as “A”; determined to have immunoaugmenting action)),LCT (Min % suppression ≤−35 and Min Inh-GAPLA <0.7: Leukocyte toxic (denoted as “LCT”; determined to have cell growth inhibition action and/or metabolic activity inhibition action))
C[C@H]1O[C@@H](O[C@H]2[C@@H](O)C[C@H](O[C@H]3[C@@H](O)C[C@H](O[C@H]4CC[C@@]5(C)[C@H](CC[C@@H]6[C@@H]5C[C@@H](O)[C@]5(C)[C@@H](C7=CC(=O)OC7)CC[C@]65O)C4)O[C@@H]3C)O[C@@H]2C)C[C@H](O)[C@@H]1O [Digoxin],Pos,S (Min %; suppression ≥35: Suppression (denoted as “S”; determined to have immunosuppressive action)),NLCT
